Results taken from patent US20210040061A1, “COMPOUND, POLYMER, AND ORGANIC MATERIAL” (Sony Corporation, priority 2018, published 2021).

How the values were obtained:
[1] = Refractive index measurement (Abbe's refractometer, acetone solutions, analytical curve extrapolated); format: physicochemical; settings: light of 589 nm, 25±1° C., extrapolated to volume fraction 1
Method: A refractive index measuring method will be described below.
Average refractive indices of the respective compounds to light of 589 nm at room temperature 25±1° C. were measured by an Abbe's refractometer (ER-1, produced by Erma, Inc.) and were plotted against volume fraction of each compound, to form analytical curves (the densities of the compounds were all 1.00 g/cm^3). The analytical curves were extrapolated, and the refractive index when the volume fraction of each compound is 1 was made to be a refractive index of each compound.

[2] = Transparency evaluation of resin compatible film with polyvinyl acetate (visual inspection); format: physicochemical; design: key: Good: Transparency is good.; Poor: Coloration is present; settings: for Transparency: 3 μm film, 10 mg compound + 10 mg polyvinyl acetate, visual inspection; for evaluation of transparency: resin compatible film with PVAc
From the text: Several drops of each of these resin compositions were dropped onto a 2 cm square glass substrate, a film was formed by a spin coater, and acetone as a solvent was evaporated off, to form a resin compatible film (3 μm thick) of each compound. These films were confirmed to be transparent by visual inspection and were subjected to evaluation of transparency.
The criterion of transparency evaluation is as follows.
Good . . . Transparency is good.
Poor . . . Coloration is present.

[3] = Solubility measurement in acetone; settings: ultrasonic stirring, visual
Method: When there was an undissolved portion of the compound, a small amount of acetone was added thereto, and then stirring was further conducted for 30 seconds. The above-mentioned work was repeated, and upon dissolution of the whole of the compound, the solubility was calculated from the total amount of the solvent used.

[4] = Limit value (saturation amount) of dissolution of monomer in solvent of hologram recording photosensitive composition; format: physicochemical; settings: hologram recording photosensitive composition with 8 g of acetone as solvent
Method: (§1) In Comparative Example 5, Hologram Recording Photosensitive Composition 50 was prepared by the same method as in Example 7 by using the same materials in the same amounts as in Example 7, except that 0.88 g of Compound 40-1 (the compound of Comparative Example 1) was used as a monofunctional photopolymerizable monomer. […] Note that the amount (0.88 g) in which Compound 40-1 was used is a limit value (saturation amount) of dissolution of the compound in a solvent.
as §1, with “6,” for “5,”, “60” for “50”, “1” for “0.88”, “40-2” for “40-1”, “2)” for “1)”, “(1” for “(0.88”
as §1, with “7,” for “5,”, “70” for “50”, “0.1” for “0.88”, “40-3” for “40-1”, “3)” for “1)”, “(0.1” for “(0.88”

[5] = background statement; cited from earlier work

Refractive index (589 nm) [1]	Transparency [2]	Solubility/wt % [3] [wt %]	limit value (saturation amount) of dissolution of the compound in a solvent [4] [g]	evaluation of transparency [2]	SMILES	refractive index [5]
1.8	Good	>20			C=C(C)C(=O)Oc1cccc(CCc2cc3ccccc3c3c2sc2ccc4ccccc4c23)c1 [Example 2]	
1.8	Good	>20			C=C(C)C(=O)Oc1ccc(CCc2cc3ccccc3c3c2sc2ccc4ccccc4c23)cc1 [Example 3]	
1.7	Good	>20			C=C(CCCCCCCCCC)C(=O)Oc1ccccc1CCc1cc2ccccc2c2c1sc1ccc3ccccc3c12 [Example 4]	
1.7	Good	>20			C=C(C)C(=O)Oc1ccccc1CCc1cc2ccccc2c2c1sc1ccc3ccccc3c12 [Example 5]	
1.81	Good	>20			C=C(C)C(=O)Oc1ccc2ccccc2c1CCc1cc2ccccc2c2c1sc1ccc3ccccc3c12 [Example 6]	
1.73	Good	>20			C=C(C)C(=O)Oc1cccc(OC(=O)C(=C)C)c1CCc1cc2ccccc2c2c1sc1ccc3ccccc3c12 [Example 13]	
1.72	Good	>20			C=CC(=O)Oc1cccc(OC(=O)C=C)c1CCc1cc2ccccc2c2c1sc1ccc3ccccc3c12 [Example 14]	
1.81	Good	>20			C=C(C)C(=O)Oc1cc2ccccc2cc1CCc1cc2ccccc2c2c1sc1ccc3ccccc3c12 [Example 15]	

Second part, the compound before the results:

SMILES	Refractive index (589 nm) [1]	Transparency [2]	Solubility/wt % [3] [wt %]	limit value (saturation amount) of dissolution of the compound in a solvent [4] [g]	evaluation of transparency [2]	refractive index [5]
C=C(C)C(=O)OCc1cc2ccccc2c2c1sc1ccc3ccccc3c12 [Comparative Example 1, reference compound]	1.73	Good	<10	0.88		
C=C(C)C(=O)OC(C)c1cc2ccccc2c2c1sc1ccc3ccccc3c12 (centres unmarked) [Comparative Example 2, reference compound]	1.71	Poor	<11	1	Poor	
C=Cc1cc2ccccc2c2c1sc1ccc3ccccc3c12 [Comparative Example 3, reference compound]	1.8	Poor	<1.5	0.1	Poor	
c1ccc2c(c1)ccc1sc3ccc4ccccc4c3c12 [Comparative Example 4, reference compound]	1.81	Good				
C=C(C)C(=O)Oc1ccccc1CCc1cc2ccccc2c2c1sc1ccc3ccccc3c12 [Example 1]	1.8	Good	>20			
c1ccc2c(c1)ccc1c2sc2ccc3ccccc3c21 [dinaphthothiophene]						1.8
